Cc1ccc(S(=O)(=O)[O-])cc1Cl.[Na+]
Settings	solubility (mole fraction)
in DMF, 280.6 K	0.0203
in DMF, 286.3 K	0.0206
in DMF, 291.3 K	0.0208
in DMF, 297.6 K	0.0212
in DMF, 304.8 K	0.0216
in DMF, 310.7 K	0.0223
in DMF, 314.8 K	0.0228
in DMF, 319 K	0.0235
in DMF, 322.1 K	0.024
in DMF, 327.6 K	0.0252
in DMF, 333.3 K	0.0268
in DMSO, 294 K	0.086
in DMSO, 299.6 K	0.0868
in DMSO, 304.9 K	0.0878
in DMSO, 310.6 K	0.0887
in DMSO, 314.5 K	0.0894
in DMSO, 319.2 K	0.0902
in DMSO, 323.5 K	0.0912
in DMSO, 330.2 K	0.0929
in DMSO, 335.2 K	0.0947
in formic acid, 283 K	0.037
in formic acid, 288.9 K	0.0383
in formic acid, 295.9 K	0.0398
in formic acid, 301.4 K	0.0415
in formic acid, 307.3 K	0.0431
in formic acid, 313 K	0.0446
in formic acid, 319.5 K	0.0458
in formic acid, 324.9 K	0.0475
in formic acid, 331.1 K	0.0491
in formic acid, 335.5 K	0.0503
in methanol, 287.1 K	0.00409
in methanol, 293 K	0.00447
in methanol, 297.1 K	0.0047
in methanol, 302.6 K	0.00498
in methanol, 306.1 K	0.00524
in methanol, 311.8 K	0.0055
in methanol, 316.7 K	0.00579
in methanol, 321.5 K	0.00607
in methanol, 327 K	0.00637
in methanol, 333.1 K	0.0067
in water, 281 K	0.00416
in water, 284 K	0.00437
in water, 288.1 K	0.00478
in water, 292.2 K	0.0053
in water, 296.5 K	0.00592
in water, 301.2 K	0.00661
in water, 305.6 K	0.00733
in water, 310.7 K	0.00835
in water, 314.6 K	0.0092
in water, 318.7 K	0.0101
in water, 322.4 K	0.0111
in water, 326.2 K	0.0122
in water, 331.1 K	0.0139
in water, 335.1 K	0.0154

Source: BigSolDB 2.1
